# Test results reported in US10864150B2, “Hair treatment process” (KAO CORPORATION, priority 2013, dated 2020).
# Test: Test Example 1: impact of tension on hair straightening
# Settings: then shampooed
# Protocol: Three samples A-C of frizzy hair (bundles of 2 g Indian frizz hair, untreated, obtained from IHIP, International Hair Importers & Products, NY; see FIG. 1A) were shampooed, rinsed off with water and dried at ambient temperature. Then, an aqueous solution of 10 wt. % glyoxylic acid (pH 1.5, adjusted with NaOH) was applied to the samples A-C at a ratio of hair to solution of 1:1, uniformly distributed with a comb and left on the hair for 15 minutes at 40° C. Then, the samples were dried with a hair drier at a temperature of 90-100° C. for 10 minutes. The temperature was measured by holding an infrared thermometer at a distance of about 20 to 40 cm from the hair and scanning the area where the air stream comes into contact with the hair. The average of at least ten readings is then taken as the temperature. Samples A and B (Reference) were dried in the absence of mechanical tension and serve as reference samples. To sample C, mechanical tension was applied by fixing one end and holding the sample in an elongated state using a round brush. Reference sample B was subsequently treated with a straightening iron at a temperature of 230° C. The samples A-C were rinsed off with water, shampooed, combed and dried at ambient temperature.
compound,measurement,setting,value
O=CC(=O)O [glyoxylic acid],straightening of hair after treatment,"sample A (reference): 10 wt. % aqueous solution pH 1.5, dried with hair drier 90-100° C. in relaxed state, no mechanical tension",does not lead to a substantial straightening
same,straightening of hair after treatment,"sample B (reference): 10 wt. % aqueous solution pH 1.5, dried without tension, then straightening iron at 230° C.",straightening of the hair
same,"appearance of hair after treatment (straightening, frizz)","sample C: 10 wt. % aqueous solution pH 1.5, 15 min at 40° C., dried with hair drier 90-100° C. for 10 min under mechanical tension (round brush), no iron, versus sample A",remarkable straightened appearance and reduced frizz
